The nature of test [1]: Binding affinity of compound was tested for Sigma receptor type 1.
The target in test [2] is Sigma intracellular receptor 2 (Rattus norvegicus). The experiment in a line: Binding affinity of compound was tested for Sigma receptor type 2.

The structures appear in SMILES notation.

As usually defined, the Ki is the dissociation constant of the complex between target and ligand, obtained from inhibition or displacement. Read a high Ki as a looser hold on the target.

The compound `O=C(CCCCCN1CCN(c2noc3ccccc23)CC1)c1ccccc1O` [6-(4-Benzo[d]isoxazol-3-yl-piperazin-1-yl)-1-(2-hydroxy-phenyl)-hexan-1-one] returned a Ki in test [1] of 61 nM.
With `COc1ccccc1C(=O)CCCCCN1CCN(c2noc3ccccc23)CC1` [6-(4-Benzo[d]isoxazol-3-yl-piperazin-1-yl)-1-(2-methoxy-phenyl)-hexan-1-one], the Ki came to 147 nM in test [2] and 4300 nM in test [1].

(Values after BindingDB's records for doi:10.1021/jm020994z (Universit&#224, 2003).)
